From patent US6413995B1, “Cinnamamide derivatives and drug compositions containing the same” (Tsumura & Co., priority 1999, dated 2002)
Like-named read-outs stand apart in the source and are kept apart here.

Legend:
IL-10 = test: Inhibition of IL-10 production by mouse peritoneal macrophages (ELISA); format: cell-based, mice; conditions: Macrophage, 48 hours, read-out: Inhibitory rate (%) IL-10; for inhibition at 10 µg/mL: 10 μg/ml; for inhibition at 50 µg/mL: 50 μg/ml; for inhibition at 100 µg/mL: 100 μg/ml; for inhibition at 1 µg/mL: 1 μg/ml; for inhibition at 5 µg/mL: 5 μg/ml
Description: (§1) C57BL/6CrSlc male mice were intraperitoneally injected with 2.0 ml of 3% Brewer tioglycolate medium. Three days later, macrophages were collected from the abdominal cavity with 5.0 ml Hank's balanced salt solution, and then equally divided into each well of a 48-well plate using RPMI 1640 medium supplemented with 10% FBS (Fetal Bovine Serum), followed by incubation in a CO2 incubator for 1 hour. After the macrophages adhered to the walls of the plate, they were incubated for 48 hours in the presence of a test compound with different concentrations. Following the incubation, the supernatant was collected from each well, assayed for IL-6, IL-10 and L-12 by ELISA to determine inhibitory rates against the production of these interleukins.

IL-12 = test: Inhibition of IL-12 production by mouse peritoneal macrophages (ELISA); format: cell-based, mice; conditions: Macrophage, read-out: Inhibitory rate (%) IL-12; for inhibition at 10 µg/mL: 10 μg/ml; for inhibition at 50 µg/mL: 50 μg/ml; for inhibition at 100 µg/mL: 100 μg/ml; for inhibition at 10 µM: 10 μM/L; for inhibition at 1 µg/mL: 1 μg/ml; for inhibition at 5 µg/mL: 5 μg/ml
Description: as §1

[1] = system: Rats with Minimal Change Nephrosis; test: Inhibitory effects on urinary proteins in rats with minimal change nephrosis (Puromycin Aminonucleoside); format: in vivo; conditions: S.D. male rats, PA 50 mg/kg i.v., test drug 2 mg/kg/day from day 6 to day 11, assayed at day 11
Description: Six week old S.D. male rats were intravenously injected with Puromycin Aminonucleoside (PA; SIGMA)at a dose of 50 mg/kg so as to develop nephrosis. Six days after PA treatment, the rats were administered with a test drug at a dose of 2 mg/kg/day by day 11. Each rat was assayed for an excreted urinary protein level at day 11 to determine an inhibitory rate.

IL-6 = test: Inhibition of IL-6 production by mouse peritoneal macrophages (ELISA); format: cell-based, mice; conditions: Macrophage, 48 hours, read-out: Inhibitory rate (%) IL-6; for inhibition at 10 µg/mL: 10 μg/ml; for inhibition at 50 µg/mL: 50 μg/ml; for inhibition at 100 µg/mL: 100 μg/ml; for inhibition at 1 µg/mL: 1 μg/ml; for inhibition at 5 µg/mL: 5 μg/ml
Description: as §1

Thromboxane A2 Synthase = target: T1, Thromboxane A2 Synthase (Rattus norvegicus, UniProt P49430); test: Inhibitory effect on thromboxane A2 synthase: TXB2 in rat platelet rich plasma; format: cell-based, rats; conditions: 10 μmol/l, rat PRP
T1 construct: centrifuged at 1,300 rpm for 7 minutes to obtain platelet rich plasma (PRP); from tissue; host or cells: platelet rich plasma (washed platelets) from the abdominal aorta blood of Sprague-Dawley rats
T1 sequence (P49430 1-533): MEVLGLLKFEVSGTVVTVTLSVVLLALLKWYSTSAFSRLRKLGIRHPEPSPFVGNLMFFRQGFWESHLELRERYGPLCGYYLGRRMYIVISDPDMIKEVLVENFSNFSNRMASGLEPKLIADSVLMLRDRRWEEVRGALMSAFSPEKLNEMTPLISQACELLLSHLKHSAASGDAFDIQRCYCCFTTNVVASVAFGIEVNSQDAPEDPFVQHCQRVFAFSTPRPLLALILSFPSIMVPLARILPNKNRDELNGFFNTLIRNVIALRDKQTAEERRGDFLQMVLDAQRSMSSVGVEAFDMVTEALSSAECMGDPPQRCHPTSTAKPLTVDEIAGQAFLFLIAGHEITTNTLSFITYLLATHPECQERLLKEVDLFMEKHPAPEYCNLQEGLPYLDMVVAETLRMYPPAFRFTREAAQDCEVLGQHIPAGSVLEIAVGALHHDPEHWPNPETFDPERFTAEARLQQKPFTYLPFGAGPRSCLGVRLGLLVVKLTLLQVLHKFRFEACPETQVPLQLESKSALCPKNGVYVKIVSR
Description: Eight week old Sprague-Dawley male rats were used in this example. The rats were anesthetized with pentobarbital sodium. The blood was collected from the abdominal aorta using a heparinized syringe, and centrifuged at 1,300 rpm for 7 minutes to obtain platelet rich plasma (PRP). PRP was suspended in an equivalent volume of a buffer containing 25 mmol/l Tris-HCl, 130 mmol/l sodium chloride and 0.3 mmol/l EDTA (pH 7.4)(buffer A), followed by centrifugation at 4° C., at 1,500 rpm for 5 minutes. This procedure was repeated twice, and PRP was finally suspended in a buffer containing 25 mmol/l Tris-HCl, 130 mmol/l, 0.1% glucose and 0.1% albumin (pH7.4)(buffer B).
5×10^6 cells/mm^3 PRP preparation in buffer B was divided into each well of a 96-well plate in an amount of 150 μl/well. Each test substance was prepared at a final concentration of 10 μmol/l and added to the PRP preparation in an amount of 50 μl/well. Immediately after addition of the test substance, 5 μl of an aggregation-inducing agent, type IV collagen (1 mg/ml) or arachidonic acid (50 mmol/l), was added and incubated for 10 minutes. 20 μl of an EDTA-indomethacin solution was added to the each well to stop the reaction. The supernatant was assayed for thromboxane B2 (TXB2), stable metabolite of thromboxane A2 (TXA2), using a TXB2 measurement kit (Cayman).

[2] = arachidonic acid, 10 minutes, read-out: TXB2 induced by arachidonic acid (Inhibitory rate; %)
[3] = type IV collagen, 10 minutes, read-out: TXB2 induced by collagen (Inhibitory rate; %)
[4] = summary of Table 3, read-out: inhibitory activity against TXA2 production mediated by collagen or arachidonate

Work on `Cl.O=C(O)COc1ccc(/C=C/C(=O)NCc2cccnc2)cc1` [Example 36, [4-[(E)-2-[N-(3-pyridylmethyl)carbamoyl]ethenyl]phenoxy]acetic acid hydrochloride] yielded an inhibition at 10 µg/mL (IL-10) of -45.8%, an inhibition at 50 µg/mL (IL-10) of -13% and an inhibition at 100 µg/mL (IL-10) of 22.2%. It also gave an inhibition at 10 µg/mL (IL-12; 48 hours) of 52.1%, an inhibition at 50 µg/mL (IL-12; 48 hours) of 82.1% and an inhibition at 100 µg/mL (IL-12; 48 hours) of 64%. The “Inhibitory rate (%) of excreted urinary protein level” value (“Inhibitory rate (%)” for short) [1] was 29%, the inhibition at 10 µg/mL (IL-6) was 53.1% and the inhibition at 50 µg/mL (IL-6) was 56.7%. The inhibition at 100 µg/mL (IL-6) was 21.7%.
Compound `CCOC(=O)COc1ccc(/C=C/C(=O)N(C)Cc2cccnc2)cc1` [Example 2, Ethyl [4-[(E)-2-[N-Methyl-N-(3-pyridylmethyl)carbamoyl]ethenyl]phenoxy]-acetate] has an inhibition at 10 µg/mL (IL-10) of 27.8%, an inhibition at 50 µg/mL (IL-10) of 51.4% and an inhibition at 100 µg/mL (IL-10) of 50%. It also gave an inhibition at 10 µg/mL (IL-12; 48 hours) of 35%, an inhibition at 50 µg/mL (IL-12; 48 hours) of 63.8% and an inhibition at 100 µg/mL (IL-12; 48 hours) of 65.4%. For the same compound, the inhibition at 10 µg/mL (IL-6) was 58.8%, the inhibition at 50 µg/mL (IL-6) was 78.9% and the inhibition at 100 µg/mL (IL-6) was 88%.
`CCOC(=O)COc1ccc(/C(C)=C/C(=O)NCc2cccnc2)cc1` [Example 85, Ethyl [4-[(E)-1-Methyl-2-[N-(3-Pyridylmethyl)carbamoyl]ethenyl]phenoxy]acetate] gave an inhibition at 10 µM (IL-12; 48 hours) of 47.4%.
In the case of `CCOC(=O)COc1ccc(/C=C(\C#N)C(=O)NCc2cccnc2)cc1` [Example 81, Ethyl [4-[2-Cyano-2-[N-(3-pyridylmethyl)carbamoyl]ethenyl]phenoxy]acetate], the inhibition at 10 µM (IL-12; 48 hours) is reported as 41%.
In the case of `O=C(/C=C/c1ccccc1OCC(=O)NO)NCc1cccnc1` [Example 53], the inhibition at 10 µM (Thromboxane A2 Synthase; [2]) is reported as 56%, the inhibition at 10 µM (Thromboxane A2 Synthase; [3]) is reported as 43% and the inhibition at 10 µM (Thromboxane A2 Synthase; [4]) is reported as ≥ 50%.
With `CN(C)C(=O)COc1ccc(/C=C(\C#N)C(=O)NCc2cccnc2)cc1` [Example 84] the inhibition at 10 µM (IL-12; 48 hours) was 38.9%.
`N#C/C(=C\c1ccc(OCC(=O)O)cc1)C(=O)NCc1cccnc1` [Example 82, Sodium [4-[2-Cyano-2-[N-(3-pyridylmethyl)carbamoyl]ethenyl]phenoxy]acetate] showed an inhibition at 10 µM (IL-12; 48 h) of 30.7%.
In the case of `COC(=O)CCc1ccc(/C=C/C(=O)NCCc2ccccn2)cc1` [Example 78], the inhibition at 10 µM (IL-12; 48 hours) is reported as 49.2%.
Work on `CCOC(=O)COc1ccc(/C=C/C(=O)NCCc2cccnc2)cc1` [Example 10] yielded an inhibition at 10 µg/mL (IL-10) of 29.5%, an inhibition at 50 µg/mL (IL-10) of 33.3% and an inhibition at 100 µg/mL (IL-10) of 27.8%. It also gave an inhibition at 10 µg/mL (IL-12; 48 hours) of 30.3%, an inhibition at 50 µg/mL (IL-12; 48 hours) of 27.8% and an inhibition at 100 µg/mL (IL-12; 48 hours) of 35%. The “Inhibitory rate (%)” value [1] was 56%, the inhibition at 10 µg/mL (IL-6) was 61.2% and the inhibition at 50 µg/mL (IL-6) was 63.5%. The inhibition at 100 µg/mL (IL-6) was 61.6%.
For `O=C(O)COc1ccc(/C=C/C(=O)NCCc2ccccn2)cc1` [Example 73], the inhibition at 10 µM (Thromboxane A2 Synthase; [2]) was 23% and the inhibition at 10 µM (Thromboxane A2 Synthase; [3]) was 47%.
For `COC(=O)COc1ccc(/C=C/C(=O)NCc2cccnc2)cc1` [Example 7, methyl [4-[(E)-2-[N-(3-pyridylmethyl)carbamoyl]ethenyl]phenoxy]acetate], the inhibition at 1 µg/mL (IL-10) was 17.9%, the inhibition at 5 µg/mL (IL-10) was 1.3% and the inhibition at 10 µg/mL (IL-10) was 25.4%. It also gave an inhibition at 1 µg/mL (IL-12; 48 hours) of 28.4%, an inhibition at 5 µg/mL (IL-12; 48 hours) of 40.1% and an inhibition at 10 µg/mL (IL-12; 48 hours) of 52.5%. The “Inhibitory rate (%)” value [1] was 50%, the inhibition at 1 µg/mL (IL-6) was 13.5% and the inhibition at 5 µg/mL (IL-6) was 31.5%. It also gave an inhibition at 10 µg/mL (IL-6) of 32.5%.
For `N#C/C(=C\c1ccc(OCC(=O)O)cc1)C(=O)NCc1cccnc1` [Example 83, [4-[2-Cyano-2-[N-(3-pyridylmethyl)carbamoyl]ethenyl]phenoxy]acetic Acid], the inhibition at 10 µM (IL-12; 48 hours) was 40.9%.
In the case of `COC(=O)CC(O)c1ccc(/C=C/C(=O)NCc2cccnc2)cc1` (centres unmarked) [Example 80, methyl 3-hydroxy-3-[4-[2-[N-(3-pyridylmethyl)carbamoyl]ethenyl]phenyl]propionate], the inhibition at 10 µM (IL-12; 48 hours) is reported as 52.3%.
In the case of `CN(Cc1cccnc1)C(=O)/C=C/c1ccc(OCC(=O)O)cc1` [Example 72], the inhibition at 10 µM (Thromboxane A2 Synthase; [2]) is reported as 61%, the inhibition at 10 µM (Thromboxane A2 Synthase; [3]) is reported as 46% and the inhibition at 10 µM (Thromboxane A2 Synthase; [4]) is reported as ≥ 50%.
`O=C(O)CCc1ccc(/C=C/C(=O)NCCc2ccccn2)cc1` [Example 79] was tested, and the inhibition at 10 µM (IL-12; 48 hours) was 43%.
With `COC(=O)COc1ccc(/C=C/C(=O)NCc2ccccn2)cc1` [Example 29] the inhibition at 10 µg/mL (IL-10) was -25.7%, the inhibition at 10 µg/mL (IL-12; 48 hours) was 37.6% and the inhibition at 10 µg/mL (IL-6) was -9.5%.
`COC(=O)COc1ccc(/C=C/C(=O)NCCc2ccncc2)cc1` [Example 30] was tested, and the inhibition at 10 µg/mL (IL-10) was -38.9%, the inhibition at 10 µg/mL (IL-12; 48 hours) was 71.7% and the inhibition at 10 µg/mL (IL-6) was 58.8%.
`O=C(O)CNc1ccc(/C=C/C(=O)NCc2cccnc2)cc1` [Example 88, [[4-[(E)-2-[N-(3-Pyridylmethyl)carbamoyl]ethenyl]phenyl]amino]acetic Acid] was tested, and the inhibition at 10 µM (IL-12; 48 hours) was 26.4%.
`O=C(/C=C/c1ccc(OC(F)(F)C(=O)O)cc1)NCc1cccnc1` [Example 74] gave an inhibition at 10 µM (IL-12; 48 hours) of 51.1%.
Compound `COC(=O)COc1ccc(/C=C/C(=O)NCCc2ccccn2)cc1` [Example 16] has an inhibition at 1 µg/mL (IL-10) of 49.9%, an inhibition at 5 µg/mL (IL-10) of 50.1% and an inhibition at 10 µg/mL (IL-10) of 34.9%. For the same compound, the inhibition at 1 µg/mL (IL-12; 48 hours) was 31.4%, the inhibition at 5 µg/mL (IL-12; 48 hours) was 47.4% and the inhibition at 10 µg/mL (IL-12; 48 hours) was 40.3%. For the same compound, the “Inhibitory rate (%)” value [1] was 42%, the inhibition at 1 µg/mL (IL-6) was 26.1% and the inhibition at 5 µg/mL (IL-6) was 41.3%. It also gave an inhibition at 10 µg/mL (IL-6) of 79%.
For `COC(=O)/C=C/c1ccc(/C=C/C(=O)NCc2cccnc2)cc1` [Example 76], the inhibition at 10 µM (IL-12; 48 hours) was 50%.
`O=C(O)COc1ccccc1/C=C/C(=O)NCc1cccnc1` [Example 37] was tested, and the inhibition at 10 µM (Thromboxane A2 Synthase; [2]) was 26% and the inhibition at 10 µM (Thromboxane A2 Synthase; [3]) was 26%.
Work on `NC(=O)COc1ccc(/C=C/C(=O)NCc2cccnc2)cc1` [Example 41] yielded an inhibition at 10 µM (Thromboxane A2 Synthase; [2]) of 36% and an inhibition at 10 µM (Thromboxane A2 Synthase; [3]) of 14%.
`CNC(=S)COc1ccccc1/C=C/C(=S)NCc1cccnc1` [Example 65, (E)-3-[2-[[N-(Methyl)thiocarbamoyl]methoxy]phenyl]-N-(3-pyridylmethyl)-2-propenoic Acid Thioamide] gave an inhibition at 10 µM (Thromboxane A2 Synthase; [2]) of 23% and an inhibition at 10 µM (Thromboxane A2 Synthase; [3]) of 12%.
